Source: ChEMBL document CHEMBL1201862, “PubChem BioAssay data set” (2004)
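Following 48 hours of exposure in 96-well plates, responses at five concentrations were used to interpolate endpoints linearly. The concentration for 50% growth inhibition is given as GI50.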 The source made the active and inactive calls. Cut-off read from the data, not from the text of the source: active = GI50 up to about 1.1 µM and inactive = higher.

How the values were obtained:
Assay in all cases: NCI anticancer screen, dose series, 48 h
A549 = test system: A549
BT-549 = test system: BT-549
CAKI-1 = test system: CAKI-1
EKVX = test system: EKVX
HCT-116 = test system: HCT-116
HT-29 = test system: HT-29
LOX IMVI = test system: LOX IMVI
M14 = test system: M14
MCF7 = test system: MCF7
MDA-MB-435 = test system: MDA-MB-435
NCI-H226 = test system: NCI-H226
NCI/ADR-RES = test system: NCI/ADR-RES
OVCAR-3 = test system: OVCAR-3
PC-3 = test system: PC-3
SK-MEL-2 = test system: SK-MEL-2
SNB-19 = test system: SNB-19
IGROV-1 = test system: IGROV-1
K562 = test system: K562
MOLT-4 = test system: MOLT-4
OVCAR-5 = test system: OVCAR-5

Measured: GI50

CC(=O)c1c(C)n(C)c2c1nnc1ccccc12
inactive: A549 32.2 µM | BT-549 71.3 µM | CAKI-1 35.7 µM | EKVX 12.8 µM | HCT-116 33.7 µM | HT-29 34.1 µM | LOX IMVI 43 µM | M14 67.8 µM | MCF7 26.5 µM | MDA-MB-435 61.7 µM | NCI-H226 31.6 µM | NCI/ADR-RES 46.5 µM | OVCAR-3 > 100 µM | PC-3 59.3 µM | SK-MEL-2 > 100 µM | SNB-19 55.5 µM

CC1=CC2=C(C(N)=O)C(=O)OC2(C)C(c2ccccc2)C1 (stereo not drawn)
inactive: A549 > 100 µM | BT-549 > 100 µM | EKVX > 100 µM | HCT-116 > 100 µM | HT-29 > 100 µM | IGROV-1 > 100 µM | K562 > 100 µM | LOX IMVI > 100 µM | M14 > 100 µM | MCF7 > 100 µM | MDA-MB-435 > 100 µM | MOLT-4 > 100 µM | NCI-H226 > 100 µM | NCI/ADR-RES > 100 µM | OVCAR-3 > 100 µM | OVCAR-5 > 100 µM | PC-3 > 100 µM | SK-MEL-2 > 100 µM | SNB-19 > 100 µM

CN(/N=C(\C(=O)O)c1ccccc1)C1=NCCN1
inactive: A549 > 100 µM | BT-549 47.2 µM | CAKI-1 > 100 µM | EKVX 83.6 µM | HCT-116 > 100 µM | HT-29 > 100 µM | IGROV-1 54.2 µM | K562 > 100 µM | LOX IMVI > 100 µM | MCF7 > 100 µM | MDA-MB-435 > 100 µM | MOLT-4 > 100 µM | NCI-H226 > 100 µM | NCI/ADR-RES > 100 µM | OVCAR-3 > 100 µM | OVCAR-5 > 100 µM | PC-3 > 100 µM | SK-MEL-2 > 100 µM

CC1OC(OC2C(OC(=O)[C@@H]3CC(C)(C)C[C@@H]4C5=CC[C@@H]6[C@@]7(C)C[C@H](O)[C@H](OC8OC(CO)C(O)C(O)C8O)[C@@](C)(CO)C7[C@H](O)C[C@@]6(C)[C@]5(C)C[C@@H](O)[C@H]43)OCC(O)C2O)C(O)C(O)C1O (stereo partly drawn)
inactive: BT-549 > 15 µM | CAKI-1 > 15 µM | EKVX 9.73 µM | HCT-116 7.57 µM | HT-29 11.5 µM | IGROV-1 > 15 µM | K562 > 15 µM | LOX IMVI > 15 µM | M14 > 15 µM | MCF7 > 15 µM | MDA-MB-435 > 15 µM | MOLT-4 > 15 µM | NCI-H226 > 15 µM | NCI/ADR-RES > 15 µM | OVCAR-3 > 15 µM | OVCAR-5 7.96 µM | PC-3 > 15 µM | SK-MEL-2 > 15 µM | SNB-19 > 15 µM

O=C1c2ccc3ccccc3c2CCC1N1CCCCC1 (stereo not drawn)
inactive: A549 19.5 µM | BT-549 23.3 µM | CAKI-1 16 µM | EKVX 22.4 µM | HCT-116 17.8 µM | HT-29 20.5 µM | IGROV-1 15.2 µM | K562 17.6 µM | LOX IMVI 19.2 µM | MCF7 33.3 µM | MDA-MB-435 18 µM | NCI-H226 15.8 µM | NCI/ADR-RES 20.7 µM | OVCAR-3 15.4 µM | OVCAR-5 19.7 µM | PC-3 17.4 µM | SK-MEL-2 19.6 µM | SNB-19 19.7 µM

CC(C)Oc1cccc(N2C(CCc3c[nH]c4ccc(Br)cc34)=NS(=O)(=O)c3cnccc32)c1
inactive: A549 29.2 µM | BT-549 57.4 µM | CAKI-1 22.7 µM | EKVX 29.2 µM | HCT-116 20.3 µM | HT-29 26.2 µM | K562 27 µM | LOX IMVI 59.7 µM | M14 32.5 µM | MCF7 21.5 µM | MDA-MB-435 46.2 µM | MOLT-4 14.8 µM | NCI-H226 37.3 µM | NCI/ADR-RES 44 µM | OVCAR-3 51.3 µM | OVCAR-5 29.1 µM | PC-3 24.7 µM | SK-MEL-2 53.2 µM | SNB-19 49.5 µM

O=C1CC(c2ccc([N+](=O)[O-])cc2)C2(C(=O)NC(=S)NC2=O)C(c2ccc([N+](=O)[O-])cc2)C1 (stereo not drawn)
inactive: A549 19.6 µM | BT-549 17 µM | EKVX 32.7 µM | HCT-116 16.7 µM | HT-29 59.8 µM | IGROV-1 16.3 µM | K562 62.5 µM | LOX IMVI 19 µM | M14 19 µM | MCF7 21.4 µM | MDA-MB-435 15 µM | MOLT-4 73.3 µM | NCI-H226 15.7 µM | NCI/ADR-RES 31.6 µM | OVCAR-3 32 µM | OVCAR-5 35.5 µM | PC-3 30.5 µM | SNB-19 17.5 µM

CCOC(=O)C1=c2[nH]c3cccc4cccc(c43)n2C(=O)CC1c1ccccc1 (stereo not drawn)
inactive: A549 > 100 µM | BT-549 > 100 µM | CAKI-1 > 100 µM | EKVX > 100 µM | HCT-116 > 100 µM | HT-29 > 100 µM | IGROV-1 > 100 µM | K562 > 100 µM | LOX IMVI > 100 µM | M14 > 100 µM | MCF7 > 100 µM | MDA-MB-435 > 100 µM | MOLT-4 > 100 µM | NCI-H226 > 100 µM | NCI/ADR-RES > 100 µM | OVCAR-5 > 100 µM | PC-3 > 100 µM | SK-MEL-2 > 100 µM | SNB-19 > 100 µM

COc1c(O)cc2c(c1O)C(=O)C(Cc1ccc(O)cc1)CO2 (stereo not drawn)
inactive: A549 > 100 µM | BT-549 46.7 µM | CAKI-1 78.9 µM | EKVX > 100 µM | HCT-116 99.1 µM | HT-29 > 100 µM | IGROV-1 > 100 µM | K562 22.8 µM | LOX IMVI > 100 µM | M14 > 100 µM | MCF7 > 100 µM | MDA-MB-435 28 µM | MOLT-4 44.5 µM | NCI/ADR-RES 32.7 µM | OVCAR-3 93.1 µM | OVCAR-5 > 100 µM | PC-3 41.7 µM | SK-MEL-2 > 100 µM | SNB-19 > 100 µM

CC1(C)S[C@@H]2[C@H](NC(=O)/C=C/c3ccccc3)C(=O)N2[C@H]1C(=O)O
inactive: A549 > 100 µM | BT-549 > 100 µM | CAKI-1 > 100 µM | HCT-116 > 100 µM | HT-29 > 100 µM | IGROV-1 > 100 µM | LOX IMVI > 100 µM | M14 > 100 µM | MCF7 > 100 µM | MDA-MB-435 > 100 µM | MOLT-4 > 100 µM | NCI-H226 > 100 µM | NCI/ADR-RES > 100 µM | OVCAR-3 > 100 µM | OVCAR-5 > 100 µM | PC-3 > 100 µM | SK-MEL-2 > 100 µM | SNB-19 > 100 µM
